Where no end group is shown, it is not given here.
Assay: Physiological parameters in ischemic rats
Format: in vivo
Settings: SN treated vs saline treated rats, n=7
From the text: Seven SN treated rats and seven-saline treated rats also had their physiological parameters measured.

TNEIVEEQYTPQSLATLESVFQELGKLTGPNNQ [SN, secretoneurin]
No difference: blood gases | blood glucose | serum electrolyte levels | systemic blood pressure
